Measured values from PubChem BioAssay AID2021 (NMMLSC, 2009).
Calls of active or inactive are those of the source. No rule for the calls is given here.

Biological target: Cell division control protein 42 homolog (Homo sapiens) (UniProt P60953)
Experiment: Cdc42 activated mutant GTP-binding inhibitors, SAR follow-up, biochemical, bead-based multiplex flow cytometry, additional SAR set (AID 2021)
Conditions: fluorescent GTP binding; for Ki: measured here: Ki derived from EC50

Cell division control protein 42 homolog (Homo sapiens), sequence (P60953 whole entry, looked up): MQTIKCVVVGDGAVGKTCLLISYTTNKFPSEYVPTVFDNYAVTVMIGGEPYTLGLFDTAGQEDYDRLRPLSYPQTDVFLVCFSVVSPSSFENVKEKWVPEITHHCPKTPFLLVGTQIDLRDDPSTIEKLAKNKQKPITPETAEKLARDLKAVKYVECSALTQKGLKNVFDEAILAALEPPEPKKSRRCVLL

EC50 | Ki [µM] | SMILES
> 30 µM (inactive) |  | COc1ccc(S(=O)(=O)n2c(N)c(C#N)c(-c3ccccc3)c2C(=O)c2ccc(Br)cc2)cc1
inactive | 9.15 | O=C(C#Cc1ccccc1)c1ccc(F)cc1
> 30 µM (inactive) |  | O=Nc1c(-c2c(O)[nH]c3c(Cl)cccc23)[nH]c2ccccc12
inactive | 2.88 | CCCCS(=O)(=O)n1c(N)c(C#N)c(-c2cc(OC)c(OC)c(OC)c2)c1C(=O)c1ccccc1
> 30 µM (inactive) |  | CC(=O)Oc1ccccc1C(=O)O
> 30 µM (inactive) |  | COc1ccc(C(=O)C#Cc2ccccc2)cc1
> 30 µM (inactive) |  | O=C(C#Cc1ccccc1)c1cccnc1
> 30 µM (inactive) |  | O=C1Nc2cccc(Br)c2/C1=C1/Cc2ccccc2C1=O
> 30 µM (inactive) |  | O=C(C#Cc1ccccc1)c1ccc([N+](=O)[O-])cc1
inactive | 8.52 | O=Nc1c(-c2c(O)[nH]c3c(Br)cccc23)[nH]c2ccccc12
inactive | 0.81 | O=C1N=c2ccccc2=C1c1[nH]c(=O)[nH]c1O
> 30 µM (inactive) |  | COc1ccc2cc(CC(=O)O)ccc2c1
> 30 µM (inactive) |  | O=C1C(c2c(O)[nH]c3c(F)cccc23)=Nc2ccccc21
> 30 µM (inactive) |  | O=C1C(c2c(O)[nH]c3c(Cl)cccc23)=Nc2ccccc21
> 30 µM (inactive) |  | O=C1C(c2c(O)[nH]c3ccccc23)=Nc2ccccc21
> 30 µM (inactive) |  | O=C1Nc2ccccc2/C1=C1/Cc2ccccc2C1=O
inactive | 7.52 | CSc1ccc(/C=C2/C(C)=C(CC(=O)O)c3cc(F)ccc32)cc1
inactive | 0.93 | N#Cc1c(-c2ccc(Cl)cc2)c(C(=O)c2ccccc2)n(S(=O)(=O)c2ccc([N+](=O)[O-])cc2)c1N
> 30 µM (inactive) |  | O=Nc1c(-c2c(O)[nH]c3ccccc23)[nH]c2ccccc12
inactive | 2.87 | COc1ccc(-c2c(C#N)c(N)n(S(C)(=O)=O)c2C(=O)c2ccccc2)cc1Br
> 30 µM (inactive) |  | O=C1C(c2c(O)[nH]c3c(Br)cccc23)=Nc2ccccc21
> 30 µM (inactive) |  | O=C(C#Cc1ccccc1)c1ccccc1[N+](=O)[O-]
> 30 µM (inactive) |  | O=C1Nc2c(Br)cccc2/C1=C1/Cc2ccccc2C1=O
> 30 µM (inactive) |  | CC1=C(CC(=O)O)c2cc(F)ccc2/C1=C/c1ccc(S(C)=O)cc1 (stereo not given)

Continued, compound first:

SMILES | EC50 | Ki [µM]
COc1ccc(S(=O)(=O)n2c(N)c(C#N)c(-c3cc(Br)c(OC)c(OC)c3)c2C(=O)c2ccccc2)cc1 | > 30 µM (inactive) | 
O=C1N=c2ccccc2=C1c1[nH]c(=S)[nH]c1O | > 30 µM (inactive) | 
O=[N+]([O-])c1ccc(C#Cc2ccccc2)cc1 | 13.7 µM | 2.12
COC(=O)c1ccc(C(=O)C#Cc2ccccc2)cc1 | > 30 µM (inactive) | 
CC(C)Cc1ccc([C@H](C)C(=O)O)cc1 | inactive | 0.99
O=C1C(c2c(O)[nH]c3ccc(Br)cc23)=Nc2ccccc21 | > 30 µM (inactive) | 
CC(C(=O)O)c1cccc(C(=O)c2ccccc2)c1 (stereo not given) | > 30 µM (inactive) | 
O=Nc1c(-c2c(O)[nH]c3c(F)cccc23)[nH]c2ccccc12 | > 30 µM (inactive) | 
COc1ccc(S(=O)(=O)n2c(N)c(C#N)c(-c3cncc(Br)c3)c2C(=O)c2ccccc2)cc1 | 9.98 µM | 1.54
O=C(C#Cc1ccccc1)c1ccccc1 | > 30 µM (inactive) | 
N#Cc1ccc(C(=O)C#Cc2ccccc2)cc1 | > 30 µM (inactive) | 
CC(C(=O)O)c1cccc(Oc2ccccc2)c1 (stereo not given) | > 30 µM (inactive) | 
O=C(C#Cc1ccccc1)c1ccc(OC(F)(F)F)cc1 | > 30 µM (inactive) | 
O=Nc1c(-c2c(O)[nH]c3ccc(Br)cc23)[nH]c2ccccc12 | > 30 µM (inactive) | 
O=C(C#Cc1ccccc1)c1ccc(Cl)cc1 | > 30 µM (inactive) | 
COc1cc(-c2c(C#N)c(N)n(S(=O)(=O)c3c(C(C)C)cc(C(C)C)cc3C(C)C)c2C(=O)c2ccccc2)cc(OC)c1OC | > 30 µM (inactive) | 
